System: multipotent stem cells
Assay: Nkx2-5-transfected multipotent stem cells cocultured with rat cardiomyocytes
Assay type: cell-based, human
Conditions: coculture with rat cardiomyocytes
From the text: Red=human specific Troponin I, Green=Human cells. Following transfection, multipotent stem cells were cocultured with rat cardiomyocytes that provide environmental signals to allow the transfected cells to develop properly.

Substance: Nkx2-5: developmental control gene Nkx2-5 (SEQ ID NO: 12) transfected into multipotent stem cells (DNA TGCTGGCATGTCCGCTGTCT; listed as DNA, chemistry not given here)
- biasing of differentiation (human specific Troponin I staining): biases the differentiation toward the development of cardiac cells

From patent US9127291B2, “Methods and products for biasing cellular development” (University of Central Florida Research Foundation, Inc., priority 2004, dated 2015)
